Measured values reported in ChEMBL document CHEMBL4368936, “Discovery and structure-activity relationship study of phthalimide-phenylpyridine conjugate as inhibitor of Wnt pathway” (Bioorg Med Chem Lett, 2019).

Tests used:
[1] = species on record: Mus musculus; experiment: Inhibition of Wnt/beta-catenin pathway in mouse L Wnt3A cells at 10 uM after 48 hrs by TOP-flash dual reporter gene assay relative to control; assay type: cell-based
[2] = Inhibition of Wnt/beta-catenin pathway in mouse L Wnt3A cells after 48 hrs by TOP-flash dual reporter gene assay; assay type: cell-based; details: L Wnt-3A

IC50 [2] [nM]	Compound	inhibition [1] [%]
0.57	Cc1cc(-c2ncc(CC(=O)Nc3ccc(-c4cnccn4)cn3)cc2C)ccn1 [WNT-974]	93
–	O=C(CCCN1C(=O)c2cccc(Cl)c2C1=O)Nc1ccc(-c2ccccc2)cn1	46
–	O=C(CCCN1C(=O)c2cccc([N+](=O)[O-])c2C1=O)Nc1ccc(-c2ccccc2)cn1	17
–	O=C(CCCN1C(=O)c2ccc(F)c(F)c2C1=O)Nc1ccc(-c2ccccc2)cn1	21
–	O=C(CCCN1C(=O)c2cc(Cl)c(Cl)cc2C1=O)Nc1ccc(-c2ccccc2)cn1	-8
–	O=C(CCCN1C(=O)c2ccc(C#Cc3ccccc3)cc2C1=O)Nc1ccc(-c2ccccc2)cn1	7
> 10000	Cc1cccc2c1C(=O)N(C(C)C(=O)Nc1ccc(-c3ccccc3)cn1)C2=O (stereo not given)	39
2790	Cc1cccc2c1C(=O)N(CCCC(=O)Nc1ccc(-c3ccccc3)cn1)C2=O	61
–	Cc1ccc2c(c1)C(=O)N(CCCC(=O)Nc1ccc(-c3ccccc3)cn1)C2=O	20
–	CC(C)(C)c1ccc2c(c1)C(=O)N(CCCC(=O)Nc1ccc(-c3ccccc3)cn1)C2=O	23
–	O=C(CCCN1C(=O)c2c(Cl)c(Cl)c(Cl)c(Cl)c2C1=O)Nc1ccc(-c2ccccc2)cn1	-5
> 10000	Cc1cccc2c1C(=O)N(CCC(=O)Nc1ccc(-c3ccccc3)cn1)C2=O	29
–	O=C(CCCN1C(=O)c2ccccc2C1=O)Nc1ccc(-c2ccccc2)cn1	34
–	O=C(CCCN1C(=O)c2ccc(F)cc2C1=O)Nc1ccc(-c2ccccc2)cn1	20
280	Cc1cccc2c1C(=O)N(CC(=O)Nc1ccc(-c3ccccc3)cn1)C2=O	76
–	O=C(CCCN1C(=O)c2ccc([N+](=O)[O-])cc2C1=O)Nc1ccc(-c2ccccc2)cn1	19
–	O=C(CCCN1C(=O)c2ccc(Cl)cc2C1=O)Nc1ccc(-c2ccccc2)cn1	22
–	O=C(CCCN1C(=O)c2ccc(Br)cc2C1=O)Nc1ccc(-c2ccccc2)cn1	18
–	O=C(CCCN1C(=O)c2c(F)ccc(F)c2C1=O)Nc1ccc(-c2ccccc2)cn1	37
–	O=C(CCCN1C(=O)c2cccc(F)c2C1=O)Nc1ccc(-c2ccccc2)cn1	44
